We go through 32 molecules from patent US20240368664A1, “LIVE YEAST BIOSENSORS AND METHODS OF USE THEREOF” (priority 2021, published 2024).

For orientation: EC50 means the concentration at which the effect is half-maximal.

Where “and” joins values, the source holds several entries; their conditions need not be identical. Equal values may be shown once. Read-outs that look alike come from different tables or passages of the source. No end group written: not given here.

A short description of data set [1]: Metal-binding peptide absorbance scan. Type of data set: physicochemical.
Data set [2] in a line: Cyclic voltammetry of peptides and copper-peptide complexes. Type of data set: physicochemical. The settings on record: for potential peaks in cyclic voltammogram: 500 μM peptide in 10 mM KCl, scan rates 0.2, 0.1, 0.05 V/s; for redox potential peak of the Cu2+ complex: 1 mM tripeptide, 1 mM CuCl2, 50 mM Tris/HCl (pH 7.4), 0.1 M NaClO4, glassy carbon, 0.3 V/s.
In data set [3] the target is T1, Botrytis cinerea cognate pheromone receptor (BcSte2) (Botrytis cinerea).
T1 sequence: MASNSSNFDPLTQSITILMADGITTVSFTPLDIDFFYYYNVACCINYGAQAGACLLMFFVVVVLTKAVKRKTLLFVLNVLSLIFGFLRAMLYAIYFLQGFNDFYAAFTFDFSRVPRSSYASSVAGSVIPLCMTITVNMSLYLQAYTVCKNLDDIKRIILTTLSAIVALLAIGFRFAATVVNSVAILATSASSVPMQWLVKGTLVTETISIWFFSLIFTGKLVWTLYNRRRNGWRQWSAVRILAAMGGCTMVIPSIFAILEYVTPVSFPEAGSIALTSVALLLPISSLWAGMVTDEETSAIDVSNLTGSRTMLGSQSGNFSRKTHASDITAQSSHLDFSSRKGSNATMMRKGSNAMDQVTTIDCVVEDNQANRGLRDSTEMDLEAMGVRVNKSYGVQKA
Kind of data set: cell-based or functional assay.

Data set [4] concerns the target T2, Candida albicans pheromone GPCR CaSte2 (Candida albicans).
T2 sequence: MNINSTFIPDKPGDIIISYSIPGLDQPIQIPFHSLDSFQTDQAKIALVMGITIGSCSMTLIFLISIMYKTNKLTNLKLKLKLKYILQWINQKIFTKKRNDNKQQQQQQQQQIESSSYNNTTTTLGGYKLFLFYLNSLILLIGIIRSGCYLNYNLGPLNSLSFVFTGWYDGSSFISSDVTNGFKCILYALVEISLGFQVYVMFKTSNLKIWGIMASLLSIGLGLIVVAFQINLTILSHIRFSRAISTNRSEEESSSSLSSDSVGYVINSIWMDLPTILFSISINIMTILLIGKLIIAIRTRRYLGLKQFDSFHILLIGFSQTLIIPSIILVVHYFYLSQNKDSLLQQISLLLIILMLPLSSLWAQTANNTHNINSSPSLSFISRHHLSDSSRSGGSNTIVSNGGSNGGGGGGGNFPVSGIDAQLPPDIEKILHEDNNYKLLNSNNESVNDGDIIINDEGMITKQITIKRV
Kind of data set: cell-based or functional assay.

The target is the same in data set [5]. Kind of data set: cell-based or functional assay. Further details: EC50 compared to the native CaPep (orders of magnitude): unit not given beside the values.
In data set [6] the target is T3, Candida parapsilosis pheromone GPCR CpSte2 (native) (Candida parapsilosis).
T3 sequence: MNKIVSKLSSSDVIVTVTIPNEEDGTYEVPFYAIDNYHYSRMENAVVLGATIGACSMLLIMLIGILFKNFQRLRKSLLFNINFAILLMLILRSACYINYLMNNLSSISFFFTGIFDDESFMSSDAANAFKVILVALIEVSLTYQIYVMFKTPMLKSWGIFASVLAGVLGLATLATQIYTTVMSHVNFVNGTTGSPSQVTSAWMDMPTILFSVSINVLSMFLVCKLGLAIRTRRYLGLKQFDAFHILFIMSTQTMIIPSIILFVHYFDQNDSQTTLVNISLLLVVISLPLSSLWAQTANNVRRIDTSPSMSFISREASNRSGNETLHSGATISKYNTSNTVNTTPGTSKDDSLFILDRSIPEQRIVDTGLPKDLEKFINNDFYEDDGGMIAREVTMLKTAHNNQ
Kind of data set: cell-based or functional assay.

In the next data set the test system is CpSte2. Type of data set: cell-based, Candida parapsilosis.
For data set [7], the target named is SpSte2 with peptide proteases (Schizosaccharomyces pombe, UniProt Q00619). As to the kind of experiment: SpSte2 biosensor dose-response with complementary and non-complementary proteases. Type of data set: cell-based.
Data set [8] concerns SoSte2 with peptide proteases. The format is cell-based, Schizosaccharomyces octosporus.
In the next data set the test system is A. clavatus GPCR. Type of data set: cell-based. The settings on record: 40 μM peptide. The procedure:
(§1) FIGS. 6A-6B show Aspergillus spp peptide cross-reactivity with Aspergillus spp GPCRs. […] The test concentration was set at 40 μM of a given peptide ligand.
(§2) Next, 13 GPCRs of all genome-mined Aspergillus species, including A. fumigatus from Example 1 and S. cerevisiae, along with inducible fluorescent readout were integrated into optimized parent strain. S. cerevisiae was included to test cross-reactivity with S. cerevisiae GPCR and peptide, since this peptide/GPCR pair will be used for building multi-cellular amplification communities. Then, each strain was activated with all Aspergillus peptides and S. cerevisiae peptide (FIG. 6A). Most of the Aspergillus GPCRs were responsive to at least one peptide, except A. terreus, A. flavus/A. oryzae (same GPCR sequence), A. niger and A. nidulans which were not responsive to any tested peptide. […] The majority of peptides have the same sequence (A. fischeri, A. fumigatus, A. lentulus, A. novofumigatus, A. udagawae and A. viridinutans) and the other active peptides differ only in the third amino acid position from N-terminus (A. clavatus, A. flavus and A. oryzae).

In data set [9] the test system is Aspergillus spp and S. cerevisiae GPCRs. Type of data set: cell-based. The settings on record: 40 μM peptide. On the procedure:
as §1, §2

The next data set deals with ScSte2 (Saccharomyces cerevisiae, UniProt D6VTK4). As to the kind of experiment: ScSte2 biosensor dose-response, ymTurquoise2 readout, no protease (incl. ScPep alanine scan, yTC391). The format is cell-based. Conditions: Hill function best-fit ± standard error.
The target of data set [10] is ScSte2 with protease ScBar1 (Saccharomyces cerevisiae, UniProt D6VTK4). Type of data set: cell-based.
Data set [11] addresses T4, Candida albicans pheromone GPCR CaSte2 (Candida albicans).
T4 chain: T2 sequence
As to the kind of experiment: cell-based or functional assay.

Setting [12] is: 1 mM copper, 1 mM peptide, 50 mM Tris/HCl, NaClO4 buffer.

Sequence of SpSte2 with peptide proteases (Q00619 whole entry): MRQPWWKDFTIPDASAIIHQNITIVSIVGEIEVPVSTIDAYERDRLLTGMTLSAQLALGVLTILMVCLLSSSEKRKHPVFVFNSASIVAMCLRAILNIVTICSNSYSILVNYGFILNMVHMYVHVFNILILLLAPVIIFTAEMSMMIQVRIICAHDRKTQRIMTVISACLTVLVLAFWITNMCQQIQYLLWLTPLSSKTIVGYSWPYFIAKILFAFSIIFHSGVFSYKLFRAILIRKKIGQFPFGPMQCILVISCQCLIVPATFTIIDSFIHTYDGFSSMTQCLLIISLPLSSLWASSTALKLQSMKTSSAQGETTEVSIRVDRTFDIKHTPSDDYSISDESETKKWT
Sequence of ScSte2 (D6VTK4 whole entry): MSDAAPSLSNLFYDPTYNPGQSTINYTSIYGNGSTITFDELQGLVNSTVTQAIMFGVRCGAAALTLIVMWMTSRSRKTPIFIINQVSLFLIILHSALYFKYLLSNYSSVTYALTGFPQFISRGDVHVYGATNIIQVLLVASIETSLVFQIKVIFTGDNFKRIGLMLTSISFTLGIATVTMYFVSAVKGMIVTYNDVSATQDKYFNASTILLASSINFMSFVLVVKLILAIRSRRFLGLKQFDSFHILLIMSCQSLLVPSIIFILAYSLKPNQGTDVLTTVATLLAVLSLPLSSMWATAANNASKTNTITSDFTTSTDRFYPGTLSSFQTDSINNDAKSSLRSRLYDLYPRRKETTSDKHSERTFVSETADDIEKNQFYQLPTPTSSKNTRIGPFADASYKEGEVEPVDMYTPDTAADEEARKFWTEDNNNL
Sequence of ScSte2 with protease ScBar1 (D6VTK4 whole entry): as above

Turning to `O.O.[Cl][Cu][Cl]` [Copper, CuCl2×2H2O], the absorbance peak in data set [1] (copper alone in Tris/HCl buffer) came out at 630 nm.
For AAH, the “absorbance maxima of copper complexes” value in data set [1] (setting [12]) stood at 520 nm.
On to “AfPep: natural fungal peptide containing two cysteine residues (WCHLPGQGC; Synthetic: AfPep)”, for which the “potential peaks in cyclic voltammogram” value in [2] was “None of the tested peptides showed any unique and distinguishable potential peaks”.
In data set [3], “BcPep with its first cysteine changed into serine (peptide)” gave a maximal activation compared to the original BcPep of 4 fold.
“BcPep with its second cysteine changed into serine (peptide)” had a maximal activation compared to the original BcPep in data set [3] of 4 fold.
Take CaPep9A10A (peptide): in [4], the LogEC50 is -4.7 log M and -4.6 log M; the Top was 570 A.U. and 510 A.U. Besides, in data set [5], the EC50 compared to the native CaPep (orders of magnitude) stood at 2.
For CaPep10A (peptide), in [4], the LogEC50 is -4.6 log M and -4.2 log M; the Top is 180 A.U. and 98 A.U. In [5], this molecule registered an EC50 compared to the native CaPep (orders of magnitude) of 2.
Consider CaPep11A (peptide), for which, in data set [4], the Top was 180 A.U. and 120 A.U. In addition, in [5], the decrease in maximal activation compared to the native CaPep came to 50%.
For CaPep12A13A (peptide), in data set [4], the LogEC50 was -4.8 log M and -4.5 log M; the Top came out at 170 A.U. In addition, the EC50 compared to the native CaPep (orders of magnitude) in data set [5] stood at 2.
As for CaPep12A (peptide), in [4], the LogEC50 was -5.3 log M and -5 log M; the Top was 580 A.U. and 540 A.U. Also, the EC50 compared to the native CaPep (orders of magnitude) in data set [5] amounted to 2.
As for “Candida parapsilosis cognate peptide (CpPep)”, in data set [6], the EC50, mCherry, yMJ194 stood at 3 nM; the EC50, mCherry, yTC453 was 9 nM; the maximal activation, mCherry, yMJ194 worked out at 250 A.U; the maximal activation, mCherry, yTC453 came to 3300 A.U.
Turning to “DAHK (UniProt P02768 25-28, looked up, fragment)”, the “absorbance maxima of copper complexes” value in [1] (setting [12]) amounted to 520 nm.
Consider GHK, for which the “absorbance maxima of copper complexes” value in data set [1] (setting [12]) worked out at 620 nm. Also, the “absorbance peaks of nickel complexes” value in data set [1] (nickel complexes) is recorded as “did not show absorbance peaks”.
For “GWIGRCGVPGSSC [BcomPep, Baudoinia compniacensis mating peptide]”, in data set [2], the “potential peaks in cyclic voltammogram” value is “None of the tested peptides showed any unique and distinguishable potential peaks”.
As for His-Ala-His, the “redox potential peak of the Cu2+ complex” value in data set [2] came out at 1.1 V.
For the molecule His-His-Trp, the “redox potential peak of the Cu2+ complex” value in [2] turned out to be 0.8 V. In addition, the “absorbance maxima of copper complexes” value in [1] (setting [12]) turned out to be 620 nm. Further, the “absorbance peaks of nickel complexes” value in data set [1] (nickel complexes) is recorded as “did not show absorbance peaks”.
In the case of KKH, the “absorbance maxima of copper complexes” value in [1] (setting [12]) was 620 nm.
Molecule KPHWTTYGYYEPQ [CpPep] had a basal expression with CpSte2 (optimized strain yTC453) of roughly 0 A.U. Besides, in the data set on CpSte2 (yMJ194, natural pathway), the EC50 was roughly 3 nM and the maximal activation is recorded as roughly 250 A.U. Moreover, in the data set with CpSte2 (yTC453, optimized), the EC50 was roughly 9 nM and the maximal activation is ~3,300 A.U.
On to PHGGGWGQ, for which, in [1], the “absorbance maxima of copper complexes” value came to 620 nm and the “absorbance peaks of nickel complexes” value was “did not show absorbance peaks”.
Consider TYADFLRAYQSWNTFVNPDRPNL [SpPep], for which the EC50 in [7] was greater than 100000 nM. In addition, the “cleavage by ScBar1 and CaBar1” value in [7] (ScBar1, CaBar1) is recorded as “did not cleave”. Further, in [7] (SjSxa2 and SoSxa2), the “shift of apparent EC50 by non-complementary proteases” value was “between half and one order of magnitude”. For the same molecule, in [7] (SpSxa2, within measured concentration range), the “response with complementary protease” value was “practically completely attenuated the response”.
Turning to TYEDFLRVYKNWWSFQNPDRPDL [SoPep], in data set [8], the “cleavage by ScBar1 and CaBar1” value is “did not cleave”; the “shift of apparent EC50 by non-complementary proteases” value was “between half and one order of magnitude”; the “shift of apparent EC50 towards higher concentration by complementary protease” value is “one and a half orders of magnitude”.
On to WCALPGQGC [A. oryzae peptide], for which, in the data set with A. clavatus GPCR, the “response of A. clavatus GPCR” value is “strongest response”.
For the molecule “WCRFAGRIC (SEQ ID NO: 1) or WCRFRGQVC [A. nidulans peptide]”, in data set [9], the “activation of tested GPCRs” value is reported as “did not activate any tested GPCR”.
Still for that read-out and setting: as for WCVLPGQPC [A. niger peptide], the entry is “did not activate any tested GPCR”.
In the case of WHWLQLAPGQPMY [ScPep7A], the “Hill Slope” value at ScSte2 is 2.6 ± 0.4. Further, in data set [10], the Bottom is listed as 5.7 ± 1.3 A.U, the “Hill Slope” value is reported as 1.7 ± 0.1, the LogEC50 was −5.4 ± 0.1 M and the Top turned out to be 380 ± 10 A.U.
Consider WHWLQLKAGQPMY [ScPep8A], for which the “Hill Slope” value on ScSte2 is listed as 2.7 ± 0.1. Further, in data set [10], the Bottom was 4.6 ± 2.6 A.U, the “Hill Slope” value was 1.1 ± 0.1, the LogEC50 is given as −5.6 ± 0.1 M and the Top is 440 ± 10 A.U.
For WHWLQLKPAQPMY [ScPep9A], the “Hill Slope” value at ScSte2 is reported as 5.0 ± 1.3. In data set [10], the Bottom amounted to 3.7 ± 2.1 A.U, the “Hill Slope” value was 1.2 ± 0.1, the LogEC50 is recorded as −4.8 ± 0.2 M and the Top turned out to be 440 ± 10 A.U.
As to WHWLQLKPGAPMY [ScPep10A], the “Hill Slope” value at ScSte2 was found to be 5.3 ± 3.7. In data set [10], the Bottom stood at 8.3 ± 1.6 A.U, the “Hill Slope” value amounted to 1.8 ± 0.1, the LogEC50 is −5.2 ± 0.1 M and the Top is recorded as 420 ± 10 A.U.
As for WHWLQLKPGQAMY [ScPep11A], the “Hill Slope” value on ScSte2 turned out to be 4.6 ± 1.3. Also, in data set [10], the Bottom was 8.0 ± 2.5 A.U, the “Hill Slope” value was 1.5 ± 0.1, the LogEC50 was −5.6 ± 0.1 M and the Top was 410 ± 10 A.U.
On to WHWLQLKPGQPMA [ScPep13A], for which, at ScSte2, the “Hill Slope” value was 8.2 ± 3.1. For the same molecule, in [10], the Bottom was determined as 4.6 ± 2.5 A.U, the “Hill Slope” value is listed as 1.2 ± 0.1, the LogEC50 is listed as −5.1 ± 0.1 M and the Top came out at 490 ± 10 A.U.

B1: CaPep2A (peptide)
peptide: GARLTNFGYFEPG
modifications: not checked
Take B1: in data set [11], the EC50, ymTurquoise2, strain with the protease CaBar1 is 40 nM; the EC50, ymTurquoise2, strain without the protease stood at 50 nM; the LogEC50 is -7.4 log M and -6.9 log M; the Top is 460 A.U. and 430 A.U.

B2: CaPep13A (peptide)
peptide: GFRLTNFGYFEPA
modifications: not checked
As for B2, in data set [11], the EC50, lycopene readout, strains preincubated, +CaBar1 came to 1000 nM; the EC50, lycopene readout, strains preincubated, -CaBar1 was 80 nM; the Top is 820 A.U. and 590 A.U.
